Measured values from patent US8222218B2, “Cyclopropanated carbohydrates” (Seton Hall University, priority 2008, dated 2012).
Where two headings read alike, the source gives them in different places.

Tests used:
Assay type in all cases: in vivo
MES-induced seizures = assay: Maximal Electroshock Seizure (MES) test, mice; conditions: for responders at 30 mg/kg / responders at 100 mg/kg / responders at 300 mg/kg: Mus musculus, ip
From the text: The MES test is a model for generalized tonic-clonic seizures. The seizures are highly reproducible and electrophysiologically consistent with human seizures. The test provides information about a compound's ability to prevent the spread of seizure when all neuronal circuits of the brain are maximally active. 60 Hz of alternating current (50 mA in mice, 150 mA in rats) is applied for 2 seconds via corneal electrodes that have been treated with an electrolyte solution containing an anesthetic (0.5% tetracaine HCl). Mice are tested at a variety of intervals after an i.p. injection of […] solution of the test compound (commonly in a 0.5% solution of methylcellulose) at 30, 100, and 300 mg/kg doses. Rats are examined after a 30 mg/kg (per os, p.o.) dose that is applied in a volume of 0.04 mL/g. An animal is considered “protected” from MES-induced seizures upon removal of the hind limb extensor component of the seizure.
(§1) Male and female albino CF1 mice (18-25 g, Charles River, Portage, Mich.) and male albino Sprague-Dawley rats (275-300 g, kindling test; 100-150 g all other tests; Charles River, Raleigh, N.C.) were used as experimental animals.

[1] = test system: metrazole-induced clonic seizures; assay: Subcutaneous Metrazole Seizure Threshold Test (scMET), mice; conditions: for responders at 30 mg/kg / responders at 100 mg/kg / responders at 300 mg/kg: Mus musculus, sc
Description: The subcutaneous injection of metrazole, which is a convulsant, produces clonic seizures in laboratory animals. The scMET test is designed to identify compounds that raise the seizure threshold of an animal. Mice are pretreated with test compound at 30, 100, and 300 mg/kg doses in a similar manner to the MES test. Rats are treated with a 50 mg/kg dose (p.o.). At the previously determined TPE of the test compound, the dose of metrazole that will induce convulsions in 97% of animals (CD97: 85 mg/kg mice) is injected into the loose fold of the skin in the midline of the neck. The animals are placed in isolation cages to minimize stress and observed for the next 30 minutes for the presence or absence of seizures. An episode of clonic spasms (approximately 3-5 seconds) of the fore and/or hindlimbs, jaws or vibrissae is taken as the endpoint.
as §1

[2] = Acute toxicity, minimal motor impairment (rotorod), mice; conditions: mice, rotorod; for TOX 30 0.5 h (animals toxic/tested) / TOX 30 4 h (animals toxic/tested): 30 mg/kg; for TOX 100 0.5 h (animals toxic/tested) / TOX 100 4 h (animals toxic/tested): 100 mg/kg; for TOX 300 0.5 h (animals toxic/tested) / TOX 300 4 h (animals toxic/tested): 300 mg/kg
Description: Toxicity was measured using the minimal motor impairment test described below.
Animals are monitored for overt signs of impaired neurological or muscular function to assess a compound's toxicity. In mice, the rotorod procedure is used to disclose minimal muscular or neurological impairment. When a mouse is placed on a rotating rod (6 rpm), the animal can maintain its equilibrium for long periods of time. The animal is considered toxic if it falls off the rotating rod three times during a 1 minute period. In rats, minimal motor deficit is indicated by ataxia, which is manifested by an abnormal, uncoordinated gait.

[3] = 0.5 h, read-out: MES 30 0.5 h (animals protected/tested)
[4] = 0.5 h, read-out: MES 100 0.5 h (animals protected/tested)
[5] = 0.5 h, read-out: MES 300 0.5 h (animals protected/tested)
[6] = 4 h, read-out: MES 30 4 h (animals protected/tested)
[7] = 4 h, read-out: MES 100 4 h (animals protected/tested)
[8] = 4 h, read-out: MES 300 4 h (animals protected/tested)
[9] = 0.4 h, read-out: scMET 30 0.4 h (animals protected/tested)
[10] = 0.4 h, read-out: scMET 100 0.4 h (animals protected/tested)
[11] = 0.4 h, read-out: scMET 300 0.4 h (animals protected/tested)
[12] = 0.5 h, read-out: scMET 30 0.5 h (animals protected/tested)
[13] = 0.5 h, read-out: scMET 100 0.5 h (animals protected/tested)
[14] = 0.5 h, read-out: scMET 300 0.5 h (animals protected/tested)
[15] = mice, i.p., 30 mg/kg, 0.5 h, read-out: MES 30 0.5 h (animals protected/tested)
[16] = mice, i.p., 30 mg/kg, 4 h, read-out: MES 30 4 h (animals protected/tested)
[17] = mice, i.p., 100 mg/kg, 0.5 h, read-out: MES 100 0.5 h (animals protected/tested)
[18] = mice, i.p., 100 mg/kg, 4 h, read-out: MES 100 4 h (animals protected/tested)
[19] = mice, i.p., 300 mg/kg, 0.5 h, read-out: MES 300 0.5 h (animals protected/tested)
[20] = mice, i.p., 300 mg/kg, 4 h, read-out: MES 300 4 h (animals protected/tested)
[21] = mice, 30 mg/kg, 0.4 h, read-out: scMET 30 0.4 h (animals protected/tested)
[22] = mice, 30 mg/kg, 0.5 h, read-out: scMET 30 0.5 h (animals protected/tested)
[23] = mice, 100 mg/kg, 0.4 h, read-out: scMET 100 0.4 h (animals protected/tested)
[24] = mice, 100 mg/kg, 0.5 h, read-out: scMET 100 0.5 h (animals protected/tested)
[25] = mice, 300 mg/kg, 0.4 h, read-out: scMET 300 0.4 h (animals protected/tested)
[26] = mice, 300 mg/kg, 0.5 h, read-out: scMET 300 0.5 h (animals protected/tested)

| Compound | responders at 30 mg/kg (MES-induced seizures; [3]) [%] | responders at 100 mg/kg (MES-induced seizures; [4]) [%] | responders at 300 mg/kg (MES-induced seizures; [5]) [%] | responders at 30 mg/kg (MES-induced seizures; [6]) [%] | responders at 100 mg/kg (MES-induced seizures; [7]) [%] | responders at 300 mg/kg (MES-induced seizures; [8]) [%] | responders at 30 mg/kg [1, 9] [%] | responders at 100 mg/kg [1, 10] [%] | responders at 300 mg/kg [1, 11] [%] | responders at 30 mg/kg [1, 12] [%] | responders at 100 mg/kg [1, 13] [%] | responders at 300 mg/kg [1, 14] [%] | TOX 30 0.5 h (animals toxic/tested) [2] | TOX 30 4 h (animals toxic/tested) [2] | TOX 100 0.5 h (animals toxic/tested) [2] | TOX 100 4 h (animals toxic/tested) [2] | TOX 300 0.5 h (animals toxic/tested) [2] | TOX 300 4 h (animals toxic/tested) [2] | responders at 30 mg/kg (MES-induced seizures; [15]) [%] | responders at 30 mg/kg (MES-induced seizures; [16]) [%] | further results |
| --- | --- | --- | --- | --- | --- | --- | --- | --- | --- | --- | --- | --- | --- | --- | --- | --- | --- | --- | --- | --- | --- |
| CCOC(=O)[C@@H]1[C@H]2O[C@@H]3CO[Si](C(C)(C)C)(C(C)(C)C)O[C@H]3/C(=N/O)[C@H]21 [Compound 4] | 0 | 0 | 0 | 0 | 0 | 0 | 0 | 0 | 0 | 0 | 0 | 0 | 0/4 | 0/2 | 0/8 | 1/4 | 0/4 | 0/2 |  |  |  |
| CCOC(=O)[C@@H]1[C@H]2O[C@@H]3CO[Si](C(C)(C)C)(C(C)(C)C)O[C@H]3[C@H](OS(=O)(=O)N(C)C)[C@H]21 [Compound 5, (1S,1as,2R,2aR,6aR,7aS)-4,4-di-tert-butyl-2-dimethylsulfamoyloxy-hexahydro-3,5,7-trioxa-4-sila-cyclopropa[b]naphthalene-1-carboxylic acid ethyl ester] | 0 | 0 | 0 | 0 | 0 | 0 | 0 | 0 | 0 | 0 | 0 | 0 | 0/4 | 0/2 | 0/8 | 0/4 | 1/4 | 0/2 |  |  |  |
| CCOC(=O)C1[C@@H]2[C@@H](O)[C@@H]3OC(C)(C)OC[C@H]3O[C@H]12 (stereo partly drawn) [Compound 6a, Ethyl (4aR,5aS,6aR,7R,7aS)-7-hydroxy-2,2-dimethylhexahydro-4H-cyclopropa[5,6]pyrano[3,2-d][1,3]dioxine-6-carboxylate] |  |  |  |  |  |  |  |  |  |  |  |  | 0/4 | 0/2 | 0/8 | 0/4 | 0/4 | 0/2 | 0 | 0 | responders at 100 mg/kg (MES-induced seizures; [17]): 0%; responders at 100 mg/kg (MES-induced seizures; [18]): 0%; responders at 300 mg/kg (MES-induced seizures; [19]): 0%; responders at 300 mg/kg (MES-induced seizures; [20]): 0%; responders at 30 mg/kg [1, 21]: 0%; responders at 30 mg/kg [1, 22]: 0%; responders at 100 mg/kg [1, 23]: 0%; responders at 100 mg/kg [1, 24]: 0%; responders at 300 mg/kg [1, 25]: 0%; responders at 300 mg/kg [1, 26]: 0% |
| CCOC(=O)C1[C@@H]2[C@@H](OS(=O)(=O)N(C)C)[C@@H]3OC(C)(C)OC[C@H]3O[C@H]12 (stereo partly drawn) [Compound 8a, Ethyl (4aR,5aS,6aS,7R,7aR)-7-[(dimethlylsulfamoyl)oxy]-2,2-dimethylhexahydro-4H-cyclopropa[5,6]pyrano[3,2-d][1,3]dioxine-6-carboxylate] |  |  |  |  |  |  |  |  |  |  |  |  | 0/4 | 0/2 | 0/8 | 0/4 | 1/4 | 0/2 |  |  | MES 30 0.5 h (animals protected/tested) (MES-induced seizures; mice, i.p., 30 mg/kg, 0.5 h): 0/1; MES 30 4 h (animals protected/tested) (MES-induced seizures; mice, i.p., 30 mg/kg, 4 h): 0/1; MES 100 0.5 h (animals protected/tested) (MES-induced seizures; mice, i.p., 100 mg/kg, 0.5 h): 0/3; MES 100 4 h (animals protected/tested) (MES-induced seizures; mice, i.p., 100 mg/kg, 4 h): 0/3; MES 300 0.5 h (animals protected/tested) (MES-induced seizures; mice, i.p., 300 mg/kg, 0.5 h): 0/1; MES 300 4 h (animals protected/tested) (MES-induced seizures; mice, i.p., 300 mg/kg, 4 h): 0/1; scMET 30 0.4 h (animals protected/tested) ([1]; mice, 30 mg/kg, 0.4 h): 0/1; scMET 30 0.5 h (animals protected/tested) ([1]; mice, 30 mg/kg, 0.5 h): 0/1; scMET 100 0.4 h (animals protected/tested) ([1]; mice, 100 mg/kg, 0.4 h): 0/1; scMET 100 0.5 h (animals protected/tested) ([1]; mice, 100 mg/kg, 0.5 h): 0/1; scMET 300 0.4 h (animals protected/tested) ([1]; mice, 300 mg/kg, 0.4 h): 0/1; scMET 300 0.5 h (animals protected/tested) ([1]; mice, 300 mg/kg, 0.5 h): 0/1 |
| CCOC(=O)C1[C@@H]2[C@@H](OS(N)(=O)=O)[C@@H]3OC(C)(C)OC[C@H]3O[C@H]12 (stereo partly drawn) [Compound 8b, ethyl (4aR,5aS,6aS,7R,7aR)-2,2-dimethyl-7-(sulfamoyloxy)hexahydro-4H-cyclopropa[5,6]pyrano[3,2-d][1,3]dioxine-6-carboxylate] |  |  |  |  |  |  |  |  |  |  |  |  | 0/4 | 0/2 | 1/8 | 0/4 | 1/4 | 0/2 | 0 | 0 | responders at 100 mg/kg (MES-induced seizures; [17]): 0%; responders at 100 mg/kg (MES-induced seizures; [18]): 0%; responders at 300 mg/kg (MES-induced seizures; [19]): 0%; responders at 300 mg/kg (MES-induced seizures; [20]): 0%; responders at 30 mg/kg [1, 21]: 0%; responders at 30 mg/kg [1, 22]: 0%; responders at 100 mg/kg [1, 23]: 0%; responders at 100 mg/kg [1, 24]: 0%; responders at 300 mg/kg [1, 25]: 0%; responders at 300 mg/kg [1, 26]: 0% |
